Target: T1, human Chk1 (GST-Chk1) (Homo sapiens, UniProt O14757)
T1 construct: made in house; host or cells: insect cells (baculovirus, Bac-to-Bac)
T1 sequence (O14757 1-476): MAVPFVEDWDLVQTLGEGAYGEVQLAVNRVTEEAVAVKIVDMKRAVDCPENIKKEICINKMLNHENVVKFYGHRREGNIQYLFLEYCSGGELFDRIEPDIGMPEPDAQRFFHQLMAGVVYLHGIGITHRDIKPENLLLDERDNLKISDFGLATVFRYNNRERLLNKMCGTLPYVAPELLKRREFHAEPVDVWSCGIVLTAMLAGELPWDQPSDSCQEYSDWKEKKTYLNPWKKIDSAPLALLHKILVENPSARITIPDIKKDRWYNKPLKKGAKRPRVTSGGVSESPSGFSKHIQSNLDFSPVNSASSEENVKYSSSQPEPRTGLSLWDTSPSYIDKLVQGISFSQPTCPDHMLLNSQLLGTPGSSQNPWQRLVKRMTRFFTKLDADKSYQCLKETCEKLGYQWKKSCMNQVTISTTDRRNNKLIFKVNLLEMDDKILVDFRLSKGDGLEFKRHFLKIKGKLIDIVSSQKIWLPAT
Assay: Chk1 DELFIA kinase assay (2 nM GST-Chk1, 600 μM ATP)
Type: biochemical
Conditions: Biotin-GLYRSPSMPEN-amide substrate
Protocol: Recombinant human Chk1 was expressed as a fusion protein with glutathione S-transferase at the amino-terminus (GST-Chk1) using standard baculovirus vectors and (Bac-to-Bac®) insect cell expression system purchased from GIBCO™ Invitrogen. Recombinant protein expressed in insect cells was purified using glutathione sepharose (Amersham Biotech) using standard procedures described by the manufacturer.
Chk1 DELFIA® Kinase Assay:
Assays (25 μL) utilized 2 nM GST-Chk1 containing 10 mM Tris, pH 7.5, 20% glycerol, 50 mM sodium chloride (NaCl), 0.01% Surfact-Amps® 20, 1 μM peptide stubstrate (Biotin-GLYRSPSMPEN-amide) (SEQ ID NO: 3), 01.% BSA, 2 mM DTT, 4% DMSO, 600 μM ATP, 10 MM MgCl2 and reacted for 50 minutes at room temperature. Reactions were terminated with 100 μL of Stop buffer containing 1% BSA, 10 mM Tris, pH 8.0, 150 mM NaCl, 100 mM EDTA. Stopped reactions (100 μL) were transferred to 96 well NeutrAvidin plates (Pierce) to capture the biotin-peptide substrate during a 30 minute room temperature incubation. Wells were washed and reacted with 100 μL PerkinElmer Wallac Assay Buffer containing 21.5 ng/ml anti-phospho-Ser216-Cdc25c rabbit polyclonal antibody from Cell Signaling Technology (Beverly, Mass.) and 292 ng/ml europium labeled anti-rabbit-IgG for 1 hour at room temperature. Wells were washed and europium released from the bound antibody by addition of Enhancement Solution (100 μL) (PerkinElmer Wallac) and detected using a Perkin Elmer Wallac Envison™ 2100 multilabel reader using standard manufacturer settings.

| Structure (SMILES) | IC50 [nM] |
| --- | --- |
| CCOCCc1[nH]nc2c1c(=O)n(CCCN)c1ccc(Cl)cc21 [Example 320, 5-(3-Amino-propyl)-8-chloro-3-(2-ethoxy-ethyl)-2,5-dihydro-pyrazolo[4,3-c]quinolin-4-one] | < 1000 |
| Cc1[nH]nc2c1c(=O)n(C)c1c(C#CCCN)cc(Cl)cc21 [Compound 345, 6-(4-amino-but-1-ynyl)-8-chloro-3,5-dimethyl-2,5-dihydro-pyrazolo[4,3-c]quinolin-4-one] | < 1000 |
| Cc1[nH]nc2c1c(=O)n(CCCN)c1ccc(C(=O)NCCN(C)C)cc21 [Example 352, 5-(3-Amino-propyl)-3-methyl-4-oxo-4,5-dihydro-2H-pyrazolo[4,3-c]quinoline-8-carboxylic acid (2-dimethylamino-ethyl)-amide] | < 1000 |
| Cc1[nH]nc2c1c(=O)n(CCCN)c1cc(C(=O)NCCc3cccnc3)ccc21 [Example 366, 5-(3-Amino-propyl)-3-methyl-4-oxo-4,5-dihydro-2H-pyrazolo[4,3-c]quinoline-7-carboxylic acid (2-pyridin-3-yl-ethyl)-amide] | < 1000 |
| Cc1[nH]nc2c1c(=O)n(CCCNCc1ncc[nH]1)c1ccc(Cl)cc21 [Example 244, 8-Chloro-5-{3-[(1H-imidazol-2-ylmethyl)-amino]-propyl}-3-methyl-2,5-dihydro-pyrazolo[4,3-c]quinolin-4-one] | < 1000 |
| CNCCCn1c(=O)c2c(CCOC)[nH]nc2c2cc(C)ccc21 [Example 236, 3-(2-Methoxy-ethyl)-8-methyl-5-(3-methylamino-propyl)-2,5-dihydro-pyrazolo[4,3-c]quinolin-4-one] | < 1000 |
| NCCCn1c(=O)c2c(C3CCOC3)[nH]nc2c2cc(Cl)ccc21 (stereo not shown) [Example 327, 5-(3-Amino-propyl)-8-chloro-3-(tetrahydro-furan-3-yl)-2,5-dihydro-pyrazolo[4,3-c]quinolin-4-one] | < 1000 |

Now from value to compound:

| IC50 [nM] | Structure (SMILES) |
| --- | --- |
| < 1000 | COCC#Cc1ccc2c(c1)c1n[nH]c(C)c1c(=O)n2CCCN [Example 281, 5-(3-Amino-propyl)-8-(3-methoxy-prop-1-ynyl)-3-methyl-2,5-dihydro-pyrazolo[4,3-c]quinolin-4-one] |
| < 1000 | CCNCCCn1c(=O)c2c(C)[nH]nc2c2cc(Cl)ccc21 [Example 238, 8-Chloro-5-(3-ethylamino-propyl)-3-methyl-2,5-dihydro-pyrazolo[4,3-c]quinolin-4-one] |
| < 1000 | Cc1[nH]nc2c1c(=O)n(CCCN)c1ccc(N)cc21 [Example 260, 8-Amino-5-(3-amino-propyl)-3-methyl-2,5-dihydro-pyrazolo[4,3-c]quinolin-4-one] |
| < 1000 | Cc1[nH]nc2c1c(=O)n(CCCN)c1ccc(C#CCN)cc21 [Example 273, 5-(3-Amino-propyl)-8-(3-amino-prop-1-ynyl]-3-methyl 2,5-dihydro-pyrazolo[4,3-c]quinolin-4-one] |
| 1000 to 10000 | Cc1[nH]nc2c1c(=O)n(CCCN)c1ccc(C(=O)O)cc21 [Compound 266, 5-(3-Amino-propyl)-3-methyl-4-oxo-4,5-dihydro-2H-pyrazolo[4,3-c]quinoline-8-carboxylic acid] |
| < 1000 | Cc1[nH]nc2c1c(=O)n(CCCN)c1ccc(NC(=O)CCN)cc21 [Compound 357, 3-Amino-N-[5-(3-amino-propyl)-3-methyl-4-oxo-4,5-dihydro-2H-pyrazolo[4,3-c]quinolin-8-yl]-propionamide] |
| < 1000 | Cc1[nH]nc2c1c(=O)n(CCCN)c1ccc(-c3ccncc3)cc21 [Compound 358, 5-(3-Amino-propyl)-3-methyl-8-pyridin-4-yl-2,5-dihydro-pyrazolo[4,3-c]quinolin-4-one] |
| < 1000 | CCOc1ccc2c(c1)c1n[nH]c(C)c1c(=O)n2CCCN [Example 256, 5-(3-Amino-propyl)-8-ethoxy-3methyl-2,5-dihydro-pyrazolo[4,3-c]quinolin-4-one] |
| < 1000 | Cc1[nH]nc2c1c(=O)n(CCCN)c1ccc(CCCO)cc21 [Example 301, 5-(3-Amino-propyl)-8-(3-hydroxy-propyl)-3-methyl 2,5-dihydro-pyrazolo[4,3-c]quinolin-4-one] |

Reference: US20050245563A1 (Millennium Pharmaceuticals, Inc., priority 2003, published 2005)
